This assay addresses T1, Phosphatidylinositol 4,5-bisphosphate 3-kinase catalytic subunit delta isoform (Homo sapiens, UniProt O00329).
T1 sequence (O00329 whole entry): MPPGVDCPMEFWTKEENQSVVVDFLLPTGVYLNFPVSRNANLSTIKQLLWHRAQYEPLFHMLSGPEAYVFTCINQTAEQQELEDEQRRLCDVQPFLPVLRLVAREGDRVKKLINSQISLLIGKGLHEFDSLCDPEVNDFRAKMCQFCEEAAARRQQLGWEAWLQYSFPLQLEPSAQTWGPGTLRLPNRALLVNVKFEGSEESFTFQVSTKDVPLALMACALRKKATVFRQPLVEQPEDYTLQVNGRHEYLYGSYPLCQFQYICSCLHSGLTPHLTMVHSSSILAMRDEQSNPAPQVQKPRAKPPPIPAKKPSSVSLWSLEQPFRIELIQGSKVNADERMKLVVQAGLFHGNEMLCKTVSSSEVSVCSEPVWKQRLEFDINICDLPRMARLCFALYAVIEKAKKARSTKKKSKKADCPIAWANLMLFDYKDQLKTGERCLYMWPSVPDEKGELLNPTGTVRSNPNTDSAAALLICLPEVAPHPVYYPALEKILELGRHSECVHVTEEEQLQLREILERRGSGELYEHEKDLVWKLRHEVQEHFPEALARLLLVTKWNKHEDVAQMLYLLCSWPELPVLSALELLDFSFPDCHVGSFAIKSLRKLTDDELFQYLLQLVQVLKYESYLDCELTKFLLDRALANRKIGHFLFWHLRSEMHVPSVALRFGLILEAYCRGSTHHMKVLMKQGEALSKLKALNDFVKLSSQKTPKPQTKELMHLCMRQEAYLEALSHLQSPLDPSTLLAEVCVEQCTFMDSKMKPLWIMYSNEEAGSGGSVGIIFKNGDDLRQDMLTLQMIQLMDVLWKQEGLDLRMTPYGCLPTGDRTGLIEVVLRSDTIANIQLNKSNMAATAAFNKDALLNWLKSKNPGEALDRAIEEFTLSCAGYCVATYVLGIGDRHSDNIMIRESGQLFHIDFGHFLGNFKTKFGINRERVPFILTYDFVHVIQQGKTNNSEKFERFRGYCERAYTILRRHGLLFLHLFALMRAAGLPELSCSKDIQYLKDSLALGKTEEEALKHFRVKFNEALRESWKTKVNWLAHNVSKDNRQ
The assay is described as follows: Inhibition of recombinant human PI3Kdelta using PIP2 as substrate preincubated for 20 mins followed by substrate addition measured after 80 mins in presence of ATP by Kinase Glo luminescence assay. On the technique in general: In Kinase-Glo more light means more ATP remaining.

The structures appear in SMILES notation.

Usually IC50 stands for the concentration needed to halve the response being measured. With `O=C(c1cc([C@H]2CCCN2c2cc(F)cc(F)c2)c2oc(N3CCOCC3)cc(=O)c2c1)N1CCOCC1`, the half-inhibitory concentration (IC50) was 8.6 nM.
